Values of other authors, collected in patent US8927021B2, “Granulating process and thus prepared granulate” (Egis Gyogyszergyar Nyilvanosan Muekoedoe Reszventarsasag, priority 2009, dated 2015).

solubility in digestive juice (digestive juice): insoluble | solubility in organic solvents (organic solvents): soluble | solubility in water (water): insoluble
SMILES: O=C1[C@H](CC[C@H](O)c2ccc(F)cc2)[C@@H](c2ccc(O)cc2)N1c1ccc(F)cc1 [Ezetimibe, (3R,4S)-1-(4-Fluorophenyl)-3-[(3S)-3-(4-fluorophenyl)-3-hydroxypropyl]-4-(4-hydroxyphenyl)-2-azetidinone]
